Assay results as given in patent publication US9109175B2, “Isoprenoid based alternative diesel fuel” (The Regents of the University of California, priority 2010, dated 2015).
Marks after values point to notes of the source that are not given here.

How the values were obtained:
Type in all cases: physicochemical
[1] = Cetane number, ASTM D6890 / D613; settings: for Cetane number: ASTM D6890
Method: “Cetane number” refers to a measure of how readily a fuel starts to burn (autoignite) under conditions described by ASTM D613 or ASTM D6890. A fuel with a high cetane number starts to burn shortly after it is injected into the cylinder; it has a short ignition delay period. Conversely, a fuel with a low cetane number resists autoignition and has a longer ignition delay period.
(§1) Fuel property testing of hydrogenated bisabolene was carried out using standard ASTM methods known to and used by those of skill in the art. Table 1 sets forth the various fuel properties analyzed for each of Diesel Fuel Grade #2, bisabolene (mixture of isomers) and hydrogenated bisabolene as well as the ASTM test methods employed to analyze the particular fuel property.

[2] = Distillation temperature, ASTM D2887 / D86
Method: as §1

API gravity, ASTM D4052 = settings: ASTM D4052, 15.56° C.
Method: as §1

[3] = Cloud point, ASTM D5773 / D2500
Method: as §1

Density, ASTM D4052 = settings: ASTM D4052, 15.56° C.
Method: “Density” refers to a measure of mass per volume at a particular temperature. The generally accepted method for measuring the density of a fuel is ASTM Standard D4052, which is incorporated herein by reference.
as §1

[4] = Kinetic viscosity, ASTM D445; settings: ASTM D445, 40° C.
Method: “Viscosity” refers to a measure of the resistance of a fuel or fuel composition to deform under shear stress. The generally accepted method for measuring the viscosity of a fuel is ASTM Standard D445, which is incorporated herein by reference.
as §1

Freeze point, ASTM D5972 = test: Freeze point, ASTM D5972
Method: as §1

Flash point, ASTM D93 = test: Flash point, ASTM D93
Method: as §1

SMILES | Derived Cetane Number (DCN) [1] | Distillation [2] | API Gravity (@ 15.56° C.) (API gravity, ASTM D4052) | Cloud point [3] [°C] | Density (@ 15.56° C.) (Density, ASTM D4052) [kg/m^3] | Kinetic viscosity (@ 40° C.) [4] [mm^2/s] | Freeze point (Freeze point, ASTM D5972) [°C] | Flash point (Flash point, ASTM D93) [°C] | Cetane number [1]
CC(C)CCCC(C)C1CCC(C)CC1 (stereo not shown) [hydrogenated bisabolene] | about 42 |  |  |  |  |  |  |  | 
CC(C)CCCC(C)C1CCC(C)CC1 (stereo not shown) [Hydrogenated commercial bisabolene, 1(1,5-dimethylhexyl)-4-methylcyclohexane] |  | 267^d ° C. | 41 | <−78 | 819.7 | 2.91 | <−81 | 111 | 41.9
CC(C)CCCC(C)C1CCC(C)CC1 (stereo not shown) [Hydrogenated biosynthetic bisabolene, 1(1,5-dimethylhexyl)-4-methylcyclohexane] |  |  |  |  |  |  |  |  | 52.6
